The values that follow come from patent publication US11207331B2, “Agents, compositions and methods for enhancing neurological function” (University of Southern California, priority 2007, dated 2021).

Series [1] has as its system hippocampal neural cells. The experiment in a line: 3H-thymidine uptake in cultured hippocampal neural cells. In kind it is cell-based, rat. As to conditions: from about 0.1 nm to about 250 nm THP. Here is the method:
Biochemical analyses of 3H-thymidine uptake, as a measure of DNA synthesis, were used as the experimental vehicle to confirm the morphological observations described in examples 1 and 2. […] Thus, the range for the neurogenic effect of THP on neural cells is quite is sensitive and quite broad.
For these experiments, cultured hippocampal neural cells, derived from embryonic day 18 rat fetuses, were allowed to adhere to polylysine coated plastic cover-slips for 40 min in serum containing medium. Following adhesion, neurons were exposed to […] 3H-thymidine in the presence or absence of 100-500 nM THP and allowed to incubate at 37° C. for 24 hours in the absence or presence of the indicated steroids. Data are expressed as mean+SEM, *p<. 05,**p<0.01, ***p<0.001.
The time course of THP-induced 3H-thymidine incorporation in hippocampal neuronal cells is shown in FIG. 9 where cultured hippocampal nerve cells, derived from embryonic day 18 rat fetuses, were allowed to adhere to polylysine coated plastic cover-slips for 40 min in serum containing medium. Following adhesion, serum containing medium in the presence or absence of 10-250 nM THP plus […] 3H-thymidine and allowed to incubate at 37 for 1, 8 or 24 hours. Data are expressed as mean±SEM, *p<0.05,**p<0.01,***p<0.001.

The test system of series [2] is 3×TgAD and non-Tg mice. Put plainly: Trace eyeblink conditioning, learning and memory. In kind it is in vivo, mouse. As to conditions: for memory performance nine days after learning trial / learning performance: 3 months; for learning performance: 10 mg/kg s.c. once. Here is the method: Under deep anesthesia by intraperitoneal (i.p.) injection with ketamine (100 mg/kg i.p.) and xylazine (25 mg/kg i.p.), a 4 pin head stage (DIGI-KEY) was cemented to the skull of 3 month old male mouse with dental acrylic. The connector has four Teflon-coated stainless steel wires and one bare stainless steel wire (0.003″ bare and 0.0055″ coated, A-M Systems, Inc.). The bare wire was attached via a gold pin (Time Electronics) to the head stage. Coated wires were implanted s.c. in the orbicularis oculi dorsal to the left upper eyelid to record the EMG and s.c. periorbitally to deliver the shock US (3). All animals were then placed on a warm isothermal pad after surgery to recovery for 30 min. After surgery, mice were individually housed, provided with ad libitum access to food and water, and maintained on a 12 hr light/dark cycle.
After one week of acclimation to the colony room, mice with no obvious adverse responses to surgery were randomly assigned to an experimental condition. Mice were injected subcutaneously (s.c.) with 10 mg/kg THP or vehicle followed one hour later with an IP injection of BrdU (100 mg/kg). Following injection of test compound, mice were returned to their home cage for 7 days prior to onset of behavioral testing.
During the first day of training, mice were placed within Plexiglas cylinders in a sound-attenuated chamber and were habituated to the test environment for one session consisting of 30 stimulus-free trials at 30-60 sec inter-trial intervals while spontaneous eye-blink activity was recorded using electromyographic (EMG) activity recorded from the obicularis oculi dorsal to the orbit during each trial. EMG activity was rectified, and integrated using custom designed computational Labview routines.
Following habituation to the test environment mice underwent a learning phase and were trained for five days. Mice were trained by pairing delivery of a tone (CS, 250 msec, 2 kHz, 85 dB) as the conditioned stimulus followed by a 250 msec period of no stimuli, followed by the periobital shock as the unconditioned stimulus (US, 100 msec). Mice received two blocks of 30 trials per day (30-60-sec inter-trial intervals, 3-4-h inter-block intervals). This trace eye-blink conditioning paradigm is subthreshold for inducing neurogenesis. The unpaired group received random tone at the same magnitude as the paired conditioning and shock with 15-30 sec as inter-trial intervals and a total of 60 trials for one session per day. Shock intensity was adjusted daily for each mouse to elicit a head-movement response. Following the learning phase, mice were returned to their home cage for eight days followed on the ninth day by a single session to assess memory of the conditioned response. The percentage of CR was computed as the ratio of the number of CRs to the total number of valid trials. Animals were perfused at the end of the memory trial day.
To determine if there was a functional consequence of THP-induced neurogenesis, the impact of THP on both the learning and memory of a behavioral task shown to be dependent upon the generation of new neurons in the dentate gyrus, delayed trace conditioning was assessed. 3×TgAD and non-Tg background mice were prepared for behavioral testing and received a single s.c. injection of THP (10 mg/kg once) or vehicle 7 days prior to start of the learning trial. After injection, mice were housed for 7 days before the training process started. The rationale for the 7 day interim between exposure to THP and the start of the behavioral experiment was to allow time for the proliferation, migration and integration of newly generated neurons into the dentate gyrus.
Following the 7 day interim period, the behavioral testing commenced with a 5 day (2×30 trials/day) training learning phase to assess rate and magnitude learning performance. After the learning trial, mice were returned to their home cage for another 9 day period and subsequently tested for memory of the learned association. […]

Series [3] in a line: THP concentration in plasma and cortex by GC/MS. In kind it is in vivo, mouse. As to the method: Cortices from brain hemisection of mice treated with THP or vehicle were collected at time of sacrifice for measurement of THP by GC/MS. Plasma was also collected at time of sacrifice. Three-month-old male non-Tg and 3×TgAD mice were subcutaneously injected with THP (1, 10, and 20 mg/kg BW) or vehicle (0.1% ethanol in PBS, n=4 in each group). The mice were sacrificed 24 hours later. THP concentration in plasma and brain were measured by GC/MS. […] In the 3×TgAD mouse cortex, a 10 mg/kg dose of THP results in a cortical level of 20 ng/g protein 24 hrs post injection.

For the compound `CC(=O)[C@H]1CC[C@H]2[C@@H]3CC[C@H]4C[C@H](O)CC[C@]4(C)[C@H]3CC[C@]12C` [THP, 3α-hydroxy-5α-pregnan-20-one], the “increase in 3H-thymidine uptake relative to control” value in series [1] amounted to 80%. Besides, in series [2] (3×TgAD mice), the “memory performance nine days after learning trial” value is given as “significant increase in memory” and the learning performance entry is reported as “significantly increased the learning performance”. The “learning level (conditioned response) at the end of training” value in series [2] (3×TgAD mice, 6-months-old, 10 mg/kg) is reported as 39.2±9.2%. Further, the “memory test 9 days after acquisition phase” value in series [2] (3×TgAD mice, 6 months) was “significantly increased the retention of the conditioned response rate”. Moreover, in series [2] (3×TgAD mice, 9-months-old), the “final level of learning” value was 23.6±4.0% and the “memory performance after 9 days vs vehicle” value was “significantly better memory performance”. In series [2] (3×TgAD mice, 12-months-old), the “final level of learning” value is 14.9±3.6% and the “memory deficit vs vehicle-treated non-Tg mice” value is “not reversed”. In series [2] (3×TgAD mice, 15-month-old), the “learning rate and final level of learning” value was “did not affect the learning rate nor the final levels of learning”. For the same compound, the “% CR” value in series [2] (3×TgAD mice, memory phase) is given as 53.96%. In series [2] (non-Tg mice), the “memory performance nine days after learning trial” value is listed as “did not significantly augment the memory performance” and the learning performance entry was “did not augment the learning performance”. In addition, in series [2] (non-Tg mice, 6 months), the memory retention result is “no effect”. In addition, the “maximal conditioned response rate” value in series [2] (non-Tg mice, 6 months, 10 mg/kg) came out at 30.4±7.7%. For the same compound, in series [2] (non-Tg mice, 9-months-old), the “final level of learning” value is given as 20.6±4.1% and the memory test performance result is “no significant effect”. Further, in series [2] (non-Tg mice, 12-months-old), the “final level of learning” value is on record as 25.4±6% and the memory performance entry is “modest improved memory performance which was not significantly better than vehicle-treated group”. Besides, the “maximum level of learning” value in series [2] (non-Tg mice, 15-months-old) worked out at 29.6±5.5%. Moreover, in series [3] (1, 10 and 20 mg/kg BW s.c., 24 hours), the “dose dependence of THP in plasma and cortex” value is given as “linear dose dependent manner”. In addition, the “cortical level of THP” value in series [3] (3×TgAD mouse cortex, 10 mg/kg s.c., 24 hrs post injection) is 20 ng/g protein. Also, the “THP level in 3×TgAD relative to nontransgenic treated mice” value in series [3] (plasma and cortex, 24 hours) was “consistently lower level of THP in both plasma and cortex”.
